Measured values: patent publication US20260265238A1, “COMPOUNDS AND PHARMACEUTICAL COMPOSITIONS THAT DEGRADE SWI/SNF-RELATED MATRIX-ASSOCIATED ACTIN-DEPENDENT REGULATOR OF CHROMATIN SUBFAMILY A” (Plexium, Inc., priority 2023, published 2026)

Columns and labels:
[1] = target: T1, SMARCA2-HiBiT HeLa cells (protein which is expressed from the SMARCA2 gene) (Homo sapiens, UniProt P51531); assay: SMARCA2 degradation assay (HiBiT-fusion HeLa cell line, 24 h, luminescence); assay type: cell-based
T1 construct: protein which is expressed from the SMARCA2 and SMARCA4 genes; host or cells: HeLa (SMARCA2-HiBiT engineered line)
Procedure, shortened: (§1)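 SMARCA2- or SMARCA4-HiBiT HeLa cells seeded overnight at 37° C, then given compound as a 10-point dilution (typically 10 μM to 300 pM) for 24 h at 37° C. Protein level read by HiBiT lytic detection luminescence; DC50 from dose-response curves; degradation also scored at 1 μM.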

[2] = target: T2, SMARCA4-HiBiT HeLa cells (protein which is expressed from the SMARCA4 gene) (Homo sapiens, UniProt P51532); assay: SMARCA4 degradation assay (HiBiT-fusion HeLa cell line, 24 h, luminescence); assay type: cell-based
T2 construct: protein which is expressed from the SMARCA2 and SMARCA4 genes; host or cells: HeLa (SMARCA4-HiBiT engineered line)
Procedure, shortened: as §1

T1 sequence (P51531 whole entry, the tested form may be a part): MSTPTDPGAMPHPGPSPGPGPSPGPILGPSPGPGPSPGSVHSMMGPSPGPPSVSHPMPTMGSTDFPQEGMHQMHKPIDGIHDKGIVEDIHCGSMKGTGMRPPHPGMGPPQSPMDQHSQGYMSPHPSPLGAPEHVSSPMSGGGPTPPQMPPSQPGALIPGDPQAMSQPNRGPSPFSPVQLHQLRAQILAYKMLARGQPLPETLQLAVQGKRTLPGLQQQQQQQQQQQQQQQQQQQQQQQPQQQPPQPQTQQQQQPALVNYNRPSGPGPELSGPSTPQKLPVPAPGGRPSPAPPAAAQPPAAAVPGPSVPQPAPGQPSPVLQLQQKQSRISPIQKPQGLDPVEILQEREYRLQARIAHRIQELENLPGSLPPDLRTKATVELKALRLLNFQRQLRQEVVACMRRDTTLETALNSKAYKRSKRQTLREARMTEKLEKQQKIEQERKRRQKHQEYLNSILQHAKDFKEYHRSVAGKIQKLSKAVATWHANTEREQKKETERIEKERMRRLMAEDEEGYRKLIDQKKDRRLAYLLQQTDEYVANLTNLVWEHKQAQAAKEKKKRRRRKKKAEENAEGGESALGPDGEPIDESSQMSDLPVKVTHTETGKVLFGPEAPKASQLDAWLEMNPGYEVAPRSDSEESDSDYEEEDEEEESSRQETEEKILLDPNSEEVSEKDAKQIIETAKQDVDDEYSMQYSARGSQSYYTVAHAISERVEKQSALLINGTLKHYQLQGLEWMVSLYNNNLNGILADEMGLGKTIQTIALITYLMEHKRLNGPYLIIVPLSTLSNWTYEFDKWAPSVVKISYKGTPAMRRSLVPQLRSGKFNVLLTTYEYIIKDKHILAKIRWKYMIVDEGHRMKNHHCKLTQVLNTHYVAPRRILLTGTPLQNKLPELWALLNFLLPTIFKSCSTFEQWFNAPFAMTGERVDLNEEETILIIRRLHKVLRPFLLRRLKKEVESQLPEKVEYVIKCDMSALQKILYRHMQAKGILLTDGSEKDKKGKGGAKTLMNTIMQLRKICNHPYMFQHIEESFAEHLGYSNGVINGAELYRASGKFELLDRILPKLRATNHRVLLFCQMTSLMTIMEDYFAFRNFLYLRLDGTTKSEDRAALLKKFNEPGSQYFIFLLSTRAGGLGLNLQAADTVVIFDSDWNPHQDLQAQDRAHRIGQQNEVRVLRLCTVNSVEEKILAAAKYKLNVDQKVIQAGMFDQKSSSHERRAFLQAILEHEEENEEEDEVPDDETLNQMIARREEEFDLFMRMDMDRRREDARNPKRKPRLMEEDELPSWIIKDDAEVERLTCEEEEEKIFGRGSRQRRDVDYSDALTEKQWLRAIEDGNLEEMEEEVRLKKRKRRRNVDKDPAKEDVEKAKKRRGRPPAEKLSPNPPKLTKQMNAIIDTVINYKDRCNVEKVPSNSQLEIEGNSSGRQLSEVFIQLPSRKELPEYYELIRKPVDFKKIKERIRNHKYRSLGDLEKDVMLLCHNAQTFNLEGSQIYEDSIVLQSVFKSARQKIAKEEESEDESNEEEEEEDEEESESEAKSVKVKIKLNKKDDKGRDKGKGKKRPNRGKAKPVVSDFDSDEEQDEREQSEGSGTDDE
T2 sequence (P51532 whole entry, the tested form may be a part): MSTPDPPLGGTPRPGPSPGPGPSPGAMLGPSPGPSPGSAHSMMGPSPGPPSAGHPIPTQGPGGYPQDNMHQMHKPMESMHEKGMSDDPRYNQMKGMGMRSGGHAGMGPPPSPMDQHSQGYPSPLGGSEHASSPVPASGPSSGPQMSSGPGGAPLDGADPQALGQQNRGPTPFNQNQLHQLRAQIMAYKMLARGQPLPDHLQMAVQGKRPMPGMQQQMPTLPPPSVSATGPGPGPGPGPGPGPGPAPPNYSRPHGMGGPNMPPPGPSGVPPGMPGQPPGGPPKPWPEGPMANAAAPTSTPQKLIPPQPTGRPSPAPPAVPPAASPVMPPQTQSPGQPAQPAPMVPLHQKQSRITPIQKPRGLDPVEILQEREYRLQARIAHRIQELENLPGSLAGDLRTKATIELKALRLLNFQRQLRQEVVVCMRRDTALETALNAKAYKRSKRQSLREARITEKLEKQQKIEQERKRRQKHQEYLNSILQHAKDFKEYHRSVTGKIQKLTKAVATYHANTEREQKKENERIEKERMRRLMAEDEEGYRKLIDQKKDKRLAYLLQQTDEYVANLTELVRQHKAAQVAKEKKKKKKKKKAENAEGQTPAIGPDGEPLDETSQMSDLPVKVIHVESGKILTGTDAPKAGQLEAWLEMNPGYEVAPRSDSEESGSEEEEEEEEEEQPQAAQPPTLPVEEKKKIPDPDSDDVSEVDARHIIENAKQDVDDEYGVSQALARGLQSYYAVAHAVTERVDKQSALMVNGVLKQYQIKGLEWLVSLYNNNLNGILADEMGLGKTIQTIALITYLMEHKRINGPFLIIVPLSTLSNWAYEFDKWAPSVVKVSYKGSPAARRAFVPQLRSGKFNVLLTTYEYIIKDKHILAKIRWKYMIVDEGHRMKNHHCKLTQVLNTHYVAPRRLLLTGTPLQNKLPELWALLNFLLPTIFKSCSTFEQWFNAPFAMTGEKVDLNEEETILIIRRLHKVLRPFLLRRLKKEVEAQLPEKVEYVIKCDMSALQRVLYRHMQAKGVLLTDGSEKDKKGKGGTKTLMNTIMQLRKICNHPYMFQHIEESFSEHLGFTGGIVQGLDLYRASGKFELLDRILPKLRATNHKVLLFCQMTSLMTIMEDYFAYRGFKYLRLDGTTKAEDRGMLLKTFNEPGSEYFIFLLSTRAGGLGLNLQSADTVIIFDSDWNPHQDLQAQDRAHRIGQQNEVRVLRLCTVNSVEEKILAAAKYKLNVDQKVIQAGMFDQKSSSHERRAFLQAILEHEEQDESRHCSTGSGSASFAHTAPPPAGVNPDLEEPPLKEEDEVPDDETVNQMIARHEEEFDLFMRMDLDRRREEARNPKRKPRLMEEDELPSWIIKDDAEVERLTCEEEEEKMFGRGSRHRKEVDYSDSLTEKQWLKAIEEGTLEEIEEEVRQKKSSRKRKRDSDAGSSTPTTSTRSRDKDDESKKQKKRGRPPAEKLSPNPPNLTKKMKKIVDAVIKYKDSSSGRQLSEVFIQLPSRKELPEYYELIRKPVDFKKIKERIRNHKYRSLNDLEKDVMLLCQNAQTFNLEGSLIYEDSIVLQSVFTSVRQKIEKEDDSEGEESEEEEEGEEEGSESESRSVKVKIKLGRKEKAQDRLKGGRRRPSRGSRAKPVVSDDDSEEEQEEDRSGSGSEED

| DC50 [1] | DC50 [2] | inhibition at 1 µM [2] | SMARCA2 % Degradation @ 1 μM [1] | SMILES |
| --- | --- | --- | --- | --- |
| 500 to 5000 nM | 500 to 5000 nM | < 30% | ++ (++=30-70%) | C[C@@H]1CCN(c2cc(-c3ccccc3O)nnc2N)CCN1c1nc(C#CCO)ncc1F [Compound P-207, o-(5-{(R)-4-[5-fluoro-2-(3-hydroxy-1-propynyl)-4-pyrimidinyl]-5-methyl-1,4-diazepan-1-yl}-6-amino-3-pyridazinyl)phenol] |
| 50 to 500 nM | 50 to 500 nM | < 30% | ++ (++=30-70%) | CC(C#Cc1ncc(F)c(N2CCN(c3cc(-c4ccccc4O)nnc3N)CC[C@H]2C)n1)N(C)C (stereo partly drawn) [Compound P-208] |
| 50 to 500 nM | 50 to 500 nM | 30 to 70% | ++ (++=30-70%) | C[C@@H]1CCN(c2cc(-c3ccccc3O)nnc2N)CCN1c1ccnc(C#CCN2CC(F)(F)C3(CCC3)C2)n1 [Compound P-209, o-{5-[(R)-4-(2-{3-(8,8-difluoro-6-aza-6-spiro[3.4]octyl)-1-propyny1}-4-pyrimidinyl)-5-methyl-1,4-diazepan-1-yl]-6-amino-3-pyridaziny1} phenol] |
| < 50 nM | < 50 nM | 30 to 70% | ++ (++=30-70%) | C[C@@H]1CCN(c2cc(-c3ccccc3O)nnc2N)CCN1c1ccnc(C#CCN2CCC(C)(F)C2)n1 (stereo partly drawn) [Compound P-210, o-{5-[(R)-4-{2-[3-(3-fluoro-3-methyl-1-pyrrolidinyl)-1-propynyl]-4-pyrimidinyl}-5-methyl-1,4-diazepan-1-yl]-6-amino-3-pyridaziny1} phenol] |
| 50 to 500 nM | 500 to 5000 nM | < 30% | ++ (++=30-70%) | C[C@@H]1CCN(c2cc(-c3ccccc3O)nnc2N)CCN1c1ccnc(C#CC2CCCO2)n1 (stereo partly drawn) [Compound P-211, o-{5-[(R)-5-methyl-4-{2-[2-(tetrahydro-2-furyl)ethynyl]-4-pyrimidinyl}-1,4-diazepan-1-yl]-6-amino-3-pyridaziny1} phenol] |
| 50 to 500 nM | 50 to 500 nM | 30 to 70% | ++ (++=30-70%) | Nc1nnc(-c2ccccc2O)cc1-c1cnn(C2CN(c3ccnc(C#CCn4ccnc4)n3)C2)c1 [Compound P-212, o-{6-amino-5-[1-(1-{2-[3-(1-imidazolyl)-1-propynyl]-4-pyrimidinyl}-3-azetidinyl)-4-pyrazolyl]-3-pyridazinyl} phenol] |
| 50 to 500 nM | > 5000 nM | < 30% | ++ (++=30-70%) | C[C@@H]1CCN(c2cc(-c3ccccc3O)nnc2N)CCN1c1ccnc(C#CCN2CC3(COC3)C2)n1 [Compound P-213, o-{5-[(R)-5-methyl-4-(2-{3-(2-oxa-6-aza-6-spiro[3.3]heptyl)-1-propynyl}-4-pyrimidinyl)-1,4-diazepan-1-yl]-6-amino-3-pyridazinyl}phenol] |
| 50 to 500 nM | 50 to 500 nM | 30 to 70% | ++ (++=30-70%) | C[C@@H]1CCN(c2cc(-c3ccccc3O)nnc2N)CCN1c1nc(C#CCn2cncn2)ncc1F [Compound P-214, o-{5-[(R)-4-{5-fluoro-2-[3-(1H-1,2,4-triazol-1-yl)-1-propynyl]-4-pyrimidinyl}-5-methyl-1,4-diazepan-1-yl]-6-amino-3-pyridazinyl}phenol] |
| 50 to 500 nM | 50 to 500 nM | 30 to 70% | +++ (+++=>70%) | C[C@@H]1CCN(c2cc(-c3ccccc3O)nnc2N)CCN1c1ccnc(C#CCN2CC(C#N)C2)n1 [Compound P-215, 1-[3-(4-{ (R)-4-[3-amino-6-(o-hydroxyphenyl)-4-pyridazinyl]-7-methyl-1,4-diazepan-1-yl}-2-pyrimidinyl)-2-propynyl]-3-azetidinecarbonitrile] |
| < 50 nM | < 50 nM | 30 to 70% | ++ (++=30-70%) | CN(C)CC#Cc1nccc(N2CC(n3cc(-c4cc(-c5ccccc5O)nnc4N)cn3)C2)n1 [Compound P-216, o-{6-amino-5-[1-(1-{2-[3-(dimethylamino)-1-propynyl]-4-pyrimidinyl}-3-azetidinyl)-4-pyrazolyl]-3-pyridazinyl} phenol] |
| 50 to 500 nM | 50 to 500 nM | < 30% | ++ (++=30-70%) | C[C@H]1CCN(c2cc(-c3ccccc3O)nnc2N)CCN1c1ccnc(C#CCN(C)CC(F)(F)F)n1 [Compound P-217, o-{5-[(S)-4-(2-{3-[N-methyl(2,2,2-trifluoroethyl)amino]-1-propynyl}-4-pyrimidinyl)-5-methyl-1,4-diazepan-1-yl]-6-amino-3-pyridaziny1}phenol] |
| 50 to 500 nM | 50 to 500 nM | 30 to 70% | +++ (+++=>70%) | C[C@@H]1CCN(c2cc(-c3ccccc3O)nnc2N)CCN1c1ccnc(/C=C/CN(C)C)n1 [Compound P-218, o-{5-[(R)-4-{2-[(E)-3-(dimethylamino)-1-propenyl]-4-pyrimidinyl}-5-methyl-1,4-diazepan-1-yl]-6-amino-3-pyridazinyl}phenol] |
| 50 to 500 nM | 50 to 500 nM | > 70% | +++ (+++=>70%) | Nc1nnc(-c2ccccc2O)cc1OC1CC2CN(c3ccnc(C#CCn4ccnc4)n3)CC2C1 (stereo not drawn) [Compound P-219, o-[6-amino-5-(3-{2-[3-(1-imidazolyl)-1-propynyl]-4-pyrimidinyl}-3-azabicyclo[3.3.0]oct-7-yloxy)-3-pyridazinyl]phenol] |
| 50 to 500 nM | 50 to 500 nM | 30 to 70% | +++ (+++=>70%) | Nc1nnc(-c2ccccc2O)cc1OC1CC2CN(c3ccnc(C#CCN4CCOCC4)n3)CC2C1 (stereo not drawn) [Compound P-220, o-(6-amino-5-{3-[2-(3-morpholino-1-propynyl)-4-pyrimidinyl]-3-azabicyclo[3.3.0]oct-7-yloxy}-3-pyridazinyl)phenol] |
| 50 to 500 nM | 50 to 500 nM | > 70% | +++ (+++=>70%) | CN(C)CC#Cc1nccc(N2CC3CC(Oc4cc(-c5ccccc5O)nnc4N)CC3C2)n1 (stereo not drawn) [Compound P-222, o-[6-amino-5-(3-{2-[3-(dimethylamino)-1-propynyl]-4-pyrimidinyl}-3-azabicyclo[3.3.0]oct-7-yloxy)-3-pyridazinyl]phenol] |
| < 50 nM | < 50 nM | 30 to 70% | ++ (++=30-70%) | C[C@@H]1CCN(c2cc(-c3ccccc3O)nnc2N)CCN1c1ccnc(C#CCN2[C@H](C)C[C@@H]2C)n1 [Compound P-223, o-{5-[(R)-4-(2-{3-[(2R,4S)-2,4-dimethyl-1-azetidinyl]-1-propynyl}-4-pyrimidinyl)-5-methyl-1,4-diazepan-1-y1]-6-amino-3-pyridazinyl}phenol] |
| < 50 nM | < 50 nM | < 30% | ++ (++=30-70%) | C[C@@H]1CCN(c2cc(-c3ccccc3O)nnc2N)CCN1c1nc(C#CCN(C)C)ncc1F [Compound P-226, o-{5-[(R)-4-{2-[3-(dimethylamino)-1-propynyl]-5-fluoro-4-pyrimidinyl}-5-mcthyl-1,4-diazcpan-1-yl]-6-amino-3-pyridazinyl}phenol] |

| SMILES | DC50 [1] | DC50 [2] | inhibition at 1 µM [2] | SMARCA2 % Degradation @ 1 μM [1] |
| --- | --- | --- | --- | --- |
| Nc1nnc(-c2ccccc2O)cc1N1CC2CC(C1)N2c1ccnc(C#CCn2cncn2)n1 [Compound P-205, o-[6-amino-5-(6-{2-[3-(1H-1,2,4-triazol-1-yl)-1-propynyl]-4-pyrimidinyl}-3,6-diazabicyclo[3.1.1]hept-3-yl)-3-pyridazinyl]phenol] | > 5000 nM | 500 to 5000 nM | 30 to 70% |  |
| CN(C)CC#Cc1nccc(N2C3CC2CN(c2cc(-c4ccccc4O)nnc2N)C3)n1 [Compound P-206, o-[6-amino-5-(6-{2-[3-(dimethylamino)-1-propynyl]-4-pyrimidinyl}-3,6-diazabicyclo[3.1.1]hcpt-3-yl)-3-pyridazinyl]phenol] | < 50 nM | 50 to 500 nM | > 70% | +++ (+++=>70%) |
| CC(C)(C)OC(=O)NCC#Cc1nccc(N2CC3CC(Oc4cc(-c5ccccc5O)nnc4N)CC3C2)n1 (stereo not drawn) [Compound P-221, 4-(3-{2-[3-(tert-butoxycarbonylamino)-1-propynyl]-4-pyrimidinyl}-3-azabicyclo[3.3.0]oct-7-yloxy)-6-(o-hydroxyphenyl)-3-pyridazinamine] | 50 to 500 nM | 50 to 500 nM | > 70% | +++ (+++=>70%) |
| Nc1nnc(-c2ccccc2O)cc1N1CC2CCC(C1)N2c1nc(C#CCn2ccnc2)ncc1F [Compound P-224, o-[6-amino-5-(8-{5-fluoro-2-[3-(1-imidazolyl)-1-propynyl]-4-pyrimidinyl}-3,8-diazabicyclo[3.2.1]oct-3-yl)-3-pyridazinyl]phenol] | 50 to 500 nM | 50 to 500 nM | > 70% | +++ (+++=>70%) |
| CN(C)CC#Cc1ncc(F)c(N2C3CCC2CN(c2cc(-c4ccccc4O)nnc2N)C3)n1 [Compound P-225, o-[6-amino-5-(8-{2-[3-(dimethylamino)-1-propynyl]-5-fluoro-4-pyrimidinyl}-3,8-diazabicyclo[3.2.1]oct-3-yl)-3-pyridazinyl]phenol] | < 50 nM | < 50 nM | 30 to 70% | ++ (++=30-70%) |
